The subject of data set [1] is Chikungunya. In words: Antiviral specificity panel, Chikungunya. The format is cell-based. Particulars: Chikungunya virus; RNA virus, Huh-7.
The test system of data set [2] is Dengue-2 (DENV-2). In words: Neutral red assay of virus-induced CPE, DENV-2. The format is cell-based. Particulars: DENV2, DENV-2 New Guinea C (NGC), Huh-7, neutral red (NR) assay.
The subject of data set [3] is Human PBMC. Particulars: Table 1A, human PBMC without virus; highest concentration tested.
Data set [4] can be described thus: Bone marrow progenitor cell assay, erythroid (E). The following applies: human, erythroid (E) human bone marrow progenitor cells.
Data set [5] in a line: in vitro. The following applies: hamster.
The test system of data set [6] is Dengue serotype 2. In words: In vitro antiviral potency, summary over strains, Dengue serotype 2. It counts as cell-based. Particulars: Dengue virus.
The test system of data set [7] is Influenza A and B. In words: Antiviral specificity panel, Influenza A and B. The format is cell-based. Particulars: Influenza A virus; RNA virus, MDCK.
Data set [8] relates to Dengue serotype 3. In words: In vitro antiviral potency, summary over strains, Dengue serotype 3. It counts as cell-based. Particulars: Dengue virus.
Data set [9] deals with Japanese encephalitis. In words: Neutral red assay of virus-induced CPE, JEV. The format is cell-based. Particulars: SA-14, Huh-7, neutral red assay.
Data set [10] is described as follows: Cytotoxicity in CEM-SS cells. It counts as cell-based. The following applies: human, Table 2, CEM-SS. On the procedure:
To assess the antiviral specificity of Compound 1 (AT-281), serial dilutions were incubated with various host cell lines infected with a panel of DNA and RNA viruses other than flaviviruses. The activity of Compound 1 (AT-281) was measured in infected cells using the neutral red assay to determine the effective concentration required to inhibit viral replication 50% (EC50) (described in Example 3) and the threshold concentration required to obtain a perceptible effect on 50% of the cells incubated without virus (CC50). Compound 1 (AT-281) had no activity against the DNA viruses tested and was only weakly or not active against several RNA viruses (Table 2).

Data set [11] concerns the target T1, DENV3 NS5 (Dengue virus type 3, UniProt Q6YMS4). In words: Nucleotide analogue incorporation / discrimination assay, DENV3 NS5. The format is biochemical. The following applies: GTP for AT-9010 and AT-9002, UTP for SOF-TP. How it is done:
The chain-terminating efficiency of Compound 5 was measured in competitive nucleotide incorporation assays using all four DENV serotypes. […] In comparison, sofosbuvir triphosphate is incorporated into the RNA less than 1 time for every 100 UTP (native uridine triphosphate) incorporations.
Measurements and quantitations were as in FIG. 19B.
DENV NS5 was pre-incubated with the annealed P10/T20 RNA in an assembly buffer containing 20 mM HEPES pH 7.5, 10% glycerol, 5 mM MgCl2, and 5 mM DTT for 10 min at 30° C. to create an active RNA elongation complex.
Reactions were started by adding AT-9010 with either all four NTPs or UTP, ATP, and CTP only.
Single nucleotide incorporation was tested as follows. Reactions were started by adding the corresponding NTP or analogue. Final concentrations were 1 μM NS5, 0.25 μM P10/T20, 100 μM NTP or analogue in a final buffer containing 20 mM HEPES pH 7.5, 15% glycerol, 5 mM MgCl2, and 5 mM DTT.
Reactions were quenched at the designated time points in 3× volume FBD stop solution (formamide, 10 mM EDTA) and analyzed on 20% acrylamide-bisacrylamide (19:1) […] sequencing gels. RNA products were visualized using a Typhoon FluorImager then analyzed and quantified using ImageQuant software.

Data set [12] is described as follows: In vivo formation of AT-9010 in PBMCs, rats. Details: species or system SD rats. The following applies: single oral dose 300 mg/kg, 24 h. How it is done: Monkeys were given an oral dose of Compound 2 (AT-752) equivalent to Compound 1 (AT-281) at 55 mg/kg and blood collected at 12, 24 and 48 h. […] Mouse PBMCs were pooled from 3 animals per time point; Rat and monkey data expressed as mean+/−SD (n=2-3 per time point). […] The experimental procedure is provided in Example 15.
Male naïve SD rats (Beijing Vital River Laboratory Animals Co. Ltd., China) were administered a dose of AT-752 at 300 mg/kg in 40% PEG400, 10% solutol HS15, 50% 100 mM citrate buffer, pH 4.5 (v/v) by oral gavage. Blood samples (n=4) were collected at 1, 2, 4, 8, 12 and 24 h post-dose, plasma separated and stored at −70° C. […] For PBMCs, nine male naïve SD rats were administered a dose of Compound 2 (AT-752) (at a Compound 1 (AT-281) equivalent dose of 300 mg/kg) by oral gavage.
Pharmacokinetic measurements for FIGS. 11, 12, 13, 14, and 15 were analyzed using LC-MS/MS according to the protocol described herein. Plasma samples were prepared for MS analysis by adding internal standards and extracting with 20 volumes chilled ACN. After vortex (800 rpm for 10 min) and centrifugation (4,000 rpm, 15 min, 4° C.), the supernatants (25 μL) were diluted with an equal volume of H2O, mixed and spun again. […]

For data set [13] the following is noted: 10 μM Compound 1 for 6 h, peak at 10 h after initiation of exposure.
For data set [14], the target named is human cellular DNA-dependent DNA polymerase β (Homo sapiens, UniProt P06746). The following applies: previously shown (Good et al.); read-out: estimated IC50; cited from earlier work.
Data set [15] has as its target T1, DENV3 NS5. In words: Thermal shift assay, DENV3 NS5. Particulars: read-out: ΔTM.

As usually defined, the EC50 is the concentration giving half of the maximal effect. Lower therefore signals a more potent agent. Usually IC50 stands for the concentration that gives 50% inhibition. For orientation: ΔTm means the shift of the melting midpoint relative to a reference.

T1 sequence (Q6YMS4 2491-3390): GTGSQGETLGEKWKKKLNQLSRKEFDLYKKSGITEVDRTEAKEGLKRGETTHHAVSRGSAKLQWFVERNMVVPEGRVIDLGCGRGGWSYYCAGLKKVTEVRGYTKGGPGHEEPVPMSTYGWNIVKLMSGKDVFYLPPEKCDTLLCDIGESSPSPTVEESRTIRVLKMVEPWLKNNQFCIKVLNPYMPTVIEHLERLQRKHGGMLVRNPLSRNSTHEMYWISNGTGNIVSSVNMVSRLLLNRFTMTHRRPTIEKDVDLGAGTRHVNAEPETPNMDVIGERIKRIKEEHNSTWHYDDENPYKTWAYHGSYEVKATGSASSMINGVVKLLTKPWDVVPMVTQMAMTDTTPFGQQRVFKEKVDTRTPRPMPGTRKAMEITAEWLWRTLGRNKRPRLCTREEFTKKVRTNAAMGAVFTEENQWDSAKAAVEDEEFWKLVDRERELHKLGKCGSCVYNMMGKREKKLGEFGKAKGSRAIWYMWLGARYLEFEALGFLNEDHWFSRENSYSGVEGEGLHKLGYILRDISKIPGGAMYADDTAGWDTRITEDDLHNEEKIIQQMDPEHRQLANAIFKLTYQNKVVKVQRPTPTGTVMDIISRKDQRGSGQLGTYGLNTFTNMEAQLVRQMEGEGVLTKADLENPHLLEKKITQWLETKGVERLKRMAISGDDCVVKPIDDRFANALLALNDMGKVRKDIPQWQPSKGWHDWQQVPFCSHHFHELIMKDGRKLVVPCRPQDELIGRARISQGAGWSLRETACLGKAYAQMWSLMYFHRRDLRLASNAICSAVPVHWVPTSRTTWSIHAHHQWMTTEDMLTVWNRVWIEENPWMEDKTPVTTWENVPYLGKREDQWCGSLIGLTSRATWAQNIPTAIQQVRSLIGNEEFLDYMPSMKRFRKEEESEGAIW

Consider `CNc1nc(N)nc2c1ncn2[C@@H]1O[C@H](CO[P@](=O)(N[C@@H](C)C(=O)OC(C)C)Oc2ccccc2)[C@@H](O)[C@@]1(C)F` [Compound 1, isopropyl ((R)-(((2R,3R,4R,5R)-5-(2-amino-6-(methylamino)-9H-purin-9-yl)-4-fluoro-3-hydroxy-4-methyltetrahydrofuran-2-yl)methoxy)(phenoxy)phosphoryl)-L-alaninate], for which the EC50 in [1] was 54.2 µM; in data set [2], 0.48 µM; in data set [6], < 7 µM; in [7], > 100 µM; in data set [8], < 1.5 µM; in [9] it was 0.21 µM. Further, the CC50 in data set [3] was > 85 µM; in data set [5] it was > 170 µM; in data set [10], > 100 µM. The CC50 at 14 days in [4] is > 100 µM.

Regarding `C[C@@]1(F)[C@H](O)[C@@H](COP(=O)(O)OP(=O)(O)OP(=O)(O)O)O[C@H]1n1cnc2c(=O)[nH]c(N)nc21` [Compound 5], the “Preference (discrimination) native nucleotide > analogue” value in data set [11] was determined as 11.6 ± 1.3. For the same compound, in data set [12], the “concentration of AT-9010 in PBMCs” value turned out to be 0.439±0.218 pmol/10^6 cells. For the same compound, in [13], the “mean peak concentration of AT-9010 in PBMCs” value turned out to be 1.88±0.01 pmol/10^6 cells. In addition, the IC50 in [14] was > 100 µM. Moreover, in data set [15], the ΔTm at 100 µM stood at 5 ± 0.1 °C.

Values taken from US20250082656A1, “DOSAGE REGIMENS FOR TREATMENT OF DENGUE INFECTION” (Atea Pharmaceuticals, Inc., priority 2022, published 2025).
